Test results reported in US5756765A, “2- (2-Substituted pyrrolidin-4-yl) thio-carbapenem derivatives” (Chong Kun Dang Corp., priority 1992, dated 1998).
≈ marks a conversion by molar mass, not a printed value. Like-named read-outs stand apart in the source and are kept apart here.

Columns and labels:
[1] = test system: Enterobacter cloacae 1321E; assay: Test 1: In vitro antibacterial activity (MIC), Mueller Hinton Agar dilution; format: cell-based; conditions: read-out: Minimal Inhibitory Concentration (MIC)
Experimental: (§1) Test 1: In Vitro Antibacterial Activity Test
(§2) The compounds of Examples 1,2,3 and 4 according to the present invention were used as a test compound and imipenem was used as a comparative compound.
(§3) The test compounds and comparative compound were gradually diluted in Mueller Hinton Agar(MHA) medium. Test strains as listed in the following table were inoculated into the medium in an amount of 10^6 viable cells/ml and then incubated at 37° C. for 18 hours. Then, MIC value was measured and expressed in terms of μg/ml.

Escherichia coil TEM = assay: as above; format: cell-based; conditions: 18 h, read-out: Minimal Inhibitory Concentration (MIC)
Experimental: as §1, §2, §3

Escherichia coli DC 2 = assay: as above; format: cell-based; conditions: read-out: Minimal Inhibitory Concentration (MIC)
Experimental: as §1, §2, §3

[2] = test system: Klebsiella aerogenes 1522E; assay: as above; format: cell-based; conditions: read-out: Minimal Inhibitory Concentration (MIC)
Experimental: as §1, §2, §3

Klebsiella oxytoca 1082E = assay: as above; format: cell-based; conditions: read-out: Minimal Inhibitory Concentration (MIC)
Experimental: as §1, §2, §3

[3] = test system: Pseudomonas aeruginosa 1592E; assay: as above; format: cell-based; conditions: read-out: Minimal Inhibitory Concentration (MIC)
Experimental: as §1, §2, §3

[4] = test system: Pseudomonas aeruginosa 9027; assay: as above; format: cell-based; conditions: read-out: Minimal Inhibitory Concentration (MIC)
Experimental: as §1, §2, §3

Salmonella typhimurium = assay: as above; format: cell-based; conditions: Salmonella enterica, read-out: Minimal Inhibitory Concentration (MIC)
Experimental: as §1, §2, §3

[5] = test system: Staphylococcus aureus SG 511; assay: as above; format: cell-based; conditions: read-out: Minimal Inhibitory Concentration (MIC)
Experimental: as §1, §2, §3

[6] = Test 2: Stability test against kidney dehydrogenase DHP-I; format: in vitro ADME, pig; conditions: kidney dhp-i enzyme; for remaining at 5 min / remaining at 10 min / remaining at 20 min / remaining at 40 min / remaining at 80 min / remaining at 2 h: pig kidney enzyme, 10 mM phosphate buffer, 37° C., read-out: percentage of the remaining amount (stability on DHP-I enzyme); for remaining at 2 h: 120 minutes
Experimental: Test 2: Stability Test Against kidney Dehydrogenase DHP-I
Each of the novel compounds of Examples 1,2,3 and 4 of the present invention and the comparative compound imipenem was dissolved in 10 mM phosphate buffer and the resulting solution was mixed with dehydrogenase enzyme solution extracted from pig kidney in a ratio of equivalent amounts. The resulting mixture was incubated at 37° C. for 2 hours, during which the decomposition degree of the compound was measured. The result thereof was given in the following Table 2 in terms of percentage of the remaining amount on the basis of the initially added amount of the compound.

[7] = test system: various bacteria including beta-lactamase producing strains; conditions: compared with thienamycin; cited from earlier work
Pseudomonas aeruginosa = conditions: compared with thienamycin; cited from earlier work
[8] = test system: DHP-I enzyme present in human kidney; conditions: cited from earlier work
[9] = substances produced by DHP-I enzyme decomposition; cited from earlier work
[10] = test system: gram-positive and gram-negative bacteria; conditions: cited from earlier work
[11] = test system: dehydrogenase-1(DHP-I enzyme) present in kidney; conditions: cited from earlier work
[12] = clinically administered; cited from earlier work
[13] = Enterobacter cloacae 1321E, 10^6 viable cells/ml, 37° C., 18 hours
[14] = DC2, Escherichia coli DC 2, 10^6 viable cells/ml, 37° C., 18 hours
[15] = Klebsiella aerogenes 1522E, 10^6 viable cells/ml, 37° C., 18 hours
[16] = Klebsiella oxytoca 1082E, 10^6 viable cells/ml, 37° C., 18 hours
[17] = Pseudomonas aeruginosa 1592E, 10^6 viable cells/ml, 37° C., 18 hours
[18] = Pseudomonas aeruginosa 9027, 10^6 viable cells/ml, 37° C., 18 hours
[19] = Salmonella typhimurium, 10^6 viable cells/ml, 37° C., 18 hours
[20] = SG511, Staphylococcus aureus SG 511, 10^6 viable cells/ml, 37° C., 18 hours

Structure (SMILES): C[C@@H](O)[C@H]1C(=O)N2C(C(=O)O)=C(S[C@@H]3CN[C@H](CSCC(=O)NCC#N)C3)[C@H](C)[C@H]12 [Example 1, (1R,5S,6S)-2-[(2S,4S)-2-{(cyanomethylcarbamoyl)methylmercaptomethyl}pyrrolidin-4-yl]thio-6-[(R)-1-hydroxyethyl]-1-methyl-1-carbapen-2-em-3-carboxylicacid]
- MIC [1, 13]: 0.05 µg/mL (≈ 0.11 µM)
- MIC (Escherichia coil TEM): 0.1 µg/mL (≈ 0.22 µM)
- MIC (Escherichia coli DC 2; [14]): 0.1 µg/mL (≈ 0.22 µM)
- MIC [2, 15]: 0.2 µg/mL (≈ 0.44 µM)
- MIC (Klebsiella oxytoca 1082E; [16]): 0.2 µg/mL (≈ 0.44 µM)
- MIC [3, 17]: 0.78 µg/mL (≈ 1.72 µM)
- MIC [4, 18]: 0.1 µg/mL (≈ 0.22 µM)
- MIC (Salmonella typhimurium; [19]): 0.2 µg/mL (≈ 0.44 µM)
- MIC [5, 20]: 0.05 µg/mL (≈ 0.11 µM)
- remaining at 5 min [6]: 99.7%
- remaining at 10 min [6]: 99.4%
- remaining at 20 min [6]: 99.1%
- remaining at 40 min [6]: 98.1%
- remaining at 80 min [6]: 97.5%
- remaining at 2 h [6]: 97.2%

Structure (SMILES): C[C@@H](O)[C@H]1C(=O)N2C(C(=O)O)=C(S[C@@H]3CN[C@H](CSCCC(=O)NCC(N)=O)C3)[C@H](C)[C@H]12 [Example 4, (1R,5S,6S)-2-[(2S,4S)-2-{(2-carbamoylmethylcarbamoyl)ethylmercaptomethyl}pyrrolidin-4-yl]thio-6-[(R)-1-hydroxyethyl]-1-methyl-1-carbapen-2-em-3-carboxylic acid]
- MIC [1, 13]: 0.05 µg/mL (≈ 0.103 µM)
- MIC (Escherichia coil TEM): 0.1 µg/mL (≈ 0.206 µM)
- MIC (Escherichia coli DC 2; [14]): 0.1 µg/mL (≈ 0.206 µM)
- MIC [2, 15]: 0.1 µg/mL (≈ 0.206 µM)
- MIC (Klebsiella oxytoca 1082E; [16]): 0.2 µg/mL (≈ 0.411 µM)
- MIC [3, 17]: 0.78 µg/mL (≈ 1.6 µM)
- MIC [4, 18]: 0.1 µg/mL (≈ 0.206 µM)
- MIC (Salmonella typhimurium; [19]): 0.2 µg/mL (≈ 0.411 µM)
- MIC [5, 20]: 0.05 µg/mL (≈ 0.103 µM)
- remaining at 5 min [6]: 100%
- remaining at 10 min [6]: 99.8%
- remaining at 20 min [6]: 99%
- remaining at 40 min [6]: 99.8%
- remaining at 80 min [6]: 98.8%
- remaining at 2 h [6]: 98.8%

Structure (SMILES): C[C@@H](O)[C@H]1C(=O)N2C(C(=O)O)=C(SCCN=CN)C[C@H]12 [Imipenem, (5R, 6S, 8R)-3-[[2-(formimidoylamino)ethyl]thio]-6-(1-hydroxyethyl)-7-oxo-1-azabicyclo[3.2.0]hept-ene-2-carboxylic acid hydrate, reference compound]
- MIC ([1]; Enterobacter cloacae, 1321E, 18 h): 0.2 µg/mL
- MIC (Escherichia coil TEM): 0.2 µg/mL
- MIC (Escherichia coli DC 2; Escherichia coli, DC2, 18 h): 0.78 µg/mL
- MIC ([2]; Klebsiella aerogenes, 1522E, 18 h): 0.78 µg/mL
- MIC (Klebsiella oxytoca 1082E; Klebsiella oxytoca, 1082E, 18 h): 0.39 µg/mL
- MIC ([3]; Pseudomonas aeruginosa, 1592E, 18 h): 0.78 µg/mL
- MIC ([4]; Pseudomonas aeruginosa, 9027, 18 h): 0.78 µg/mL
- MIC (Salmonella typhimurium; TYPHIMURIUM, 18 h): 0.78 µg/mL
- MIC ([5]; Staphylococcus aureus, SG511, 18 h): 0.1 µg/mL
- remaining at 5 min [6]: 99.2%
- remaining at 10 min [6]: 97.9%
- remaining at 20 min [6]: 94.3%
- remaining at 40 min [6]: 87.7%
- remaining at 80 min [6]: 77%
- remaining at 2 h [6]: 66.6%
- metabolised at 2 h ([6]; pig, within about 2 hours from beginning of mixing incubation, read-out: decomposition ("was composed by about 40%")): ~40%
- antibacterial activity relative to thienamycin, in words [7]: equivalent to, or higher than, that of thienamycin
- antibacterial activity, times stronger than that of thienamycin (Pseudomonas aeruginosa): 2 to 4 times
- decomposition by DHP-I, in words [8]: can be readily decomposed by DHP-I enzyme present in human kidney
- renal toxicity, in words [9]: serious renal toxicity

Structure (SMILES): C[C@@H](O)[C@H]1C(=O)N2C(C(=O)O)=C(S[C@@H]3CN[C@H](CSCCC(=O)NCCO)C3)[C@H](C)[C@H]12 [Example 3, (1R,5S,6S)-2-[(2S,4S)-2-{(hydroxyethylcarbamoyl)ethylmercaptomethyl}pyrrolidin-4-yl]thio-6-[(R)-1-hydroxyethyl]-1-methyl-1-carbapen-2-em-3-carboxylicacid]
- MIC [1, 13]: 0.05 µg/mL (≈ 0.106 µM)
- MIC (Escherichia coil TEM): 0.05 µg/mL (≈ 0.106 µM)
- MIC (Escherichia coli DC 2; [14]): 0.1 µg/mL (≈ 0.211 µM)
- MIC [2, 15]: 0.1 µg/mL (≈ 0.211 µM)
- MIC (Klebsiella oxytoca 1082E; [16]): 0.2 µg/mL (≈ 0.422 µM)
- MIC [3, 17]: 0.39 µg/mL (≈ 0.823 µM)
- MIC [4, 18]: 0.39 µg/mL (≈ 0.823 µM)
- MIC (Salmonella typhimurium; [19]): 0.1 µg/mL (≈ 0.211 µM)
- MIC [5, 20]: 0.05 µg/mL (≈ 0.106 µM)
- remaining at 5 min [6]: 99.7%
- remaining at 10 min [6]: 99.2%
- remaining at 20 min [6]: 98.9%
- remaining at 40 min [6]: 98%
- remaining at 80 min [6]: 97.2%
- remaining at 2 h [6]: 97%

Structure (SMILES): C[C@@H](O)[C@H]1C(=O)N2C(C(=O)O)=C(SCCN)CC12 (stereo partly drawn) [thienamycin, [5R-[5α, 6α(R*)]]-3-[(2-aminoethyl)-thio]-6-(1-hydroxyethyl)-7-oxo-1-azabicyclo[3.2.0]-hept-2-ene-2-carboxylic acid]
- antimicrobial activity, in words [10]: broad and potent antimicrobial activity against gram-positive and gram-negative bacteria
- decomposition in vivo by DHP-I, in words [11]: can be readily decomposed in vivo by dehydrogenase-1(DHP-I enzyme) present in kidney
- recovery rate in urine [12]: extremely low

Structure (SMILES): C[C@@H](O)[C@H]1C(=O)N2C(C(=O)O)=C(S[C@@H]3CN[C@H](CSCCC(=O)NCC#N)C3)[C@H](C)[C@H]12 [Example 2, (1R,5S,6S)-2-[(2S,4S)-2-{(cyanomethylcarbamoyl)ethylmercaptomethyl}pyrrolidin-4-yl]thio-6-[(R)-1-hydroxyethyl]1-methyl-1-carbapen-2-em-3-carboxylic acid]
- MIC [1, 13]: 0.05 µg/mL (≈ 0.107 µM)
- MIC (Escherichia coil TEM): 0.05 µg/mL (≈ 0.107 µM)
- MIC (Escherichia coli DC 2; [14]): 0.1 µg/mL (≈ 0.213 µM)
- MIC [2, 15]: 0.1 µg/mL (≈ 0.213 µM)
- MIC (Klebsiella oxytoca 1082E; [16]): 0.2 µg/mL (≈ 0.427 µM)
- MIC [3, 17]: 0.78 µg/mL (≈ 1.66 µM)
- MIC [4, 18]: 0.78 µg/mL (≈ 1.66 µM)
- MIC (Salmonella typhimurium; [19]): 0.1 µg/mL (≈ 0.213 µM)
- MIC [5, 20]: 0.05 µg/mL (≈ 0.107 µM)
- remaining at 5 min [6]: 100%
- remaining at 10 min [6]: 99.4%
- remaining at 20 min [6]: 98.6%
- remaining at 40 min [6]: 97.2%
- remaining at 80 min [6]: 96.3%
- remaining at 2 h [6]: 96.3%
